Laboratory results taken from ChEMBL document CHEMBL4118195, “Synthesis and profiling of benzylmorpholine 1,2,4,5-tetraoxane analogue N205: Towards tetraoxane scaffolds with potential for single dose cure of malaria” (Bioorg Med Chem, 2018).

How the values were obtained:
Mus musculus [1] = assay: Dose normalized AUC (0 to t) in humanized NOD.Cg-Prkdcscid Il2rgtm1Wjl/SzJ mouse infected with Plasmodium falciparum Pf3D70087/N9 at 100 mg/kg, po administered as single dose by LC-MS/MS analysis; type: ADME, organism-based; conditions: in vivo
[2] = Drug metabolism in mouse liver microsomes assessed as metabolite M-10(II) formation at 5 uM after 60 mins by UPLC-MS analysis; type: ADME, microsome; conditions: 1 h
Plasmodium falciparum = assay: Antimalarial activity against Plasmodium falciparum 3D7 infected in human erythrocytes after 48 hrs by SYBR Green I dye-based fluorescence assay; type: functional, organism-based; conditions: 3D7, 48 h
[3] = Drug metabolism in mouse liver microsomes assessed as metabolite M+32 (V) formation at 5 uM after 60 mins by UPLC-MS analysis; type: ADME, microsome; conditions: 1 h
[4] = Drug metabolism in human liver microsomes assessed as metabolite M+32 (III) formation at 5 uM after 60 mins by UPLC-MS analysis; type: ADME, microsome; conditions: 1 h
[5] = Drug metabolism in mouse liver microsomes assessed as metabolite M+32 (III) formation at 5 uM after 60 mins by UPLC-MS analysis; type: ADME, microsome; conditions: 1 h
Cytochrome P450 1A2 = biological target: T1, Cytochrome P450 1A2 (Homo sapiens, UniProt P05177); assay: Inhibition of CYP1A2 in human liver microsomes assessed as phenacetin O-deethylation after 4 to 40 mins in presence of NADPH by LCMS analysis; type: ADME
T1 sequence (P05177 whole entry): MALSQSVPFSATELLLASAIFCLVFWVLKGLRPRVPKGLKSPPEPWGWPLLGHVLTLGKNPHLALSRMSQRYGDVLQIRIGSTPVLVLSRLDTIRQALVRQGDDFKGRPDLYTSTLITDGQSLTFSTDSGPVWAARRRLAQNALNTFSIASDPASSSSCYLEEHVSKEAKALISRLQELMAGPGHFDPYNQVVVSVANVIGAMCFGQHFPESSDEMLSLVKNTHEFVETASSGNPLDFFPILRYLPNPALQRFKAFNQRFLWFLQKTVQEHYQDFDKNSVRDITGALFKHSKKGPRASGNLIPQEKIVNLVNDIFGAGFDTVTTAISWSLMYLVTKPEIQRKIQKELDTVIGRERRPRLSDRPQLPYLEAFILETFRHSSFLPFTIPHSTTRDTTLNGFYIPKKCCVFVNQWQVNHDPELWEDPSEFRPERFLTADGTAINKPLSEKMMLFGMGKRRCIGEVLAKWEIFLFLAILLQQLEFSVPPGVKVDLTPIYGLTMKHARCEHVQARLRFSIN

[6] = Tmax in humanized NOD.Cg-Prkdcscid Il2rgtm1Wjl/SzJ mouse infected with Plasmodium falciparum Pf3D70087/N9 at 5 mg/kg, po administered as single dose by LC-MS/MS analysis; type: ADME, organism-based; conditions: in vivo
[7] = Drug metabolism in mouse liver microsomes assessed as deaminated morpholine metabolite formation at 5 uM after 60 mins by UPLC-MS analysis; type: ADME, microsome; conditions: 1 h
[8] = Drug metabolism in rat liver microsomes assessed as ring dehydrogenated metabolite formation at 5 uM after 60 mins by UPLC-MS analysis; type: ADME, microsome; conditions: 1 h
[9] = Drug metabolism in human liver microsomes assessed as open morpholine ring metabolite formation at 5 uM after 60 mins by UPLC-MS analysis; type: ADME, microsome; conditions: 1 h
[10] = Cmax in humanized NOD.Cg-Prkdcscid Il2rgtm1Wjl/SzJ mouse infected with Plasmodium falciparum Pf3D70087/N9 at 100 mg/kg, po administered as single dose after 0.25 to 23 hrs by LC-MS/MS analysis; type: ADME, organism-based; set-up: dose 100 mg/kg, route oral; conditions: in vivo
[11] = Cmax in humanized NOD.Cg-Prkdcscid Il2rgtm1Wjl/SzJ mouse infected with Plasmodium falciparum Pf3D70087/N9 at 15 mg/kg, po administered as single dose after 0.25 to 23 hrs by LC-MS/MS analysis; type: ADME, organism-based; set-up: dose 15 mg/kg, route oral; conditions: in vivo
Cytochrome P450 3A4 = Cytochrome P450 3A4 (Homo sapiens, UniProt P08684); assay: Inhibition of CYP3A4 in human liver microsomes assessed as midazolam 1'-hydroxylation after 4 to 40 mins in presence of NADPH by LCMS analysis; type: ADME
Chain of Cytochrome P450 3A4 (P08684 whole entry): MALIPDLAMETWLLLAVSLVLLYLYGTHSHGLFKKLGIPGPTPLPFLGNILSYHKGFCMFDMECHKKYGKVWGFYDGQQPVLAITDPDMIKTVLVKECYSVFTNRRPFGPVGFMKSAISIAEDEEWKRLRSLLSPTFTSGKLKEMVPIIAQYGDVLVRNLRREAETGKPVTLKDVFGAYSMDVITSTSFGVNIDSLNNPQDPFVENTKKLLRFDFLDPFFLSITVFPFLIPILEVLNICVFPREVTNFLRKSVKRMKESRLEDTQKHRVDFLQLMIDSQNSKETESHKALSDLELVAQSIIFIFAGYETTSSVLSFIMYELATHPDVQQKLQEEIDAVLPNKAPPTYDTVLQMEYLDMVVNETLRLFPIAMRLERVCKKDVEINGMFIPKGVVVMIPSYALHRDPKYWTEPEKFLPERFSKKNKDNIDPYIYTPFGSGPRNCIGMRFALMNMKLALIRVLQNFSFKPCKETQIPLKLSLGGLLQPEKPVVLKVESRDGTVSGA

Mus musculus [12] = assay: Dose normalized AUC (0 to t) in humanized NOD.Cg-Prkdcscid Il2rgtm1Wjl/SzJ mouse infected with Plasmodium falciparum Pf3D70087/N9 at 50 mg/kg, po administered as single dose by LC-MS/MS analysis; type: ADME, organism-based; conditions: in vivo
Cytochrome P450 2D6 = Cytochrome P450 2D6 (Homo sapiens, UniProt P10635); assay: Inhibition of CYP2D6 in human liver microsomes assessed as dextromethorphan O-demethylation after 4 to 40 mins in presence of NADPH by LCMS analysis
Chain of Cytochrome P450 2D6 (P10635 whole entry): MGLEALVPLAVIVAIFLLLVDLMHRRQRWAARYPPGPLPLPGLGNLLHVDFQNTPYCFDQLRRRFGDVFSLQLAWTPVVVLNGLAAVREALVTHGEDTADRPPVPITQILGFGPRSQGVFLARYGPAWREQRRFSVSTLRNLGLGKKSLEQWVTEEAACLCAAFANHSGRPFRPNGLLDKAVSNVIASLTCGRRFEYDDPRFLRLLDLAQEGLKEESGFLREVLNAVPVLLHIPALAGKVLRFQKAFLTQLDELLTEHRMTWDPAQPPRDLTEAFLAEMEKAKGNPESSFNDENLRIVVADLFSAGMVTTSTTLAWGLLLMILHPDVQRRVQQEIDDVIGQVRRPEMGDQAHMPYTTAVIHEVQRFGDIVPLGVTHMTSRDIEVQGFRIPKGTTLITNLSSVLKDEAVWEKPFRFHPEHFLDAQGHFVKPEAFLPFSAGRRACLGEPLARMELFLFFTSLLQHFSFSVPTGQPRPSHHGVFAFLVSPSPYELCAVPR

Cytochrome P450 2C9 = Cytochrome P450 2C9 (Homo sapiens, UniProt P11712); assay: Inhibition of CYP2C9 in human liver microsomes assessed as tolbutamide methylhydroxylation after 4 to 40 mins in presence of NADPH by LCMS analysis; type: ADME
Chain of Cytochrome P450 2C9 (P11712 whole entry): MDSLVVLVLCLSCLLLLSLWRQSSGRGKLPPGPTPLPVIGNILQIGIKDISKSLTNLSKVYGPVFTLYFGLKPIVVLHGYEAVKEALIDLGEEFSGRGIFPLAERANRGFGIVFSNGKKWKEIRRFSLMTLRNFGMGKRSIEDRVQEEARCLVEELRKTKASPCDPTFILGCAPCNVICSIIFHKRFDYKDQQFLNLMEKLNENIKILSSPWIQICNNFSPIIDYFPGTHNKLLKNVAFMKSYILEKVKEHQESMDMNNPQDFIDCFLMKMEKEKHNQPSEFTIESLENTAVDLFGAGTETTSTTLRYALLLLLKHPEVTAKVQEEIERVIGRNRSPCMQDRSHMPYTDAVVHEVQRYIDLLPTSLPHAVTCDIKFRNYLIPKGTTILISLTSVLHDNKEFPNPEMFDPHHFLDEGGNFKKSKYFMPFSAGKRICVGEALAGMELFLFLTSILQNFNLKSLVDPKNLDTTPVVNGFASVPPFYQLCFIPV

Mus musculus [13] = assay: Dose normalized AUC (0 to t) in humanized NOD.Cg-Prkdcscid Il2rgtm1Wjl/SzJ mouse infected with Plasmodium falciparum Pf3D70087/N9 at 30 mg/kg, po administered as single dose by LC-MS/MS analysis; type: ADME, organism-based; conditions: in vivo
[14] = Metabolic stability in human blood after 2 to 4 hrs by LC-MS method; type: ADME, tissue-based
[15] = Drug degradation in human liver microsomes assessed as compound half life at 1 uM by UPLC-MS method; type: ADME, microsome
[16] = Drug metabolism in human liver microsomes assessed as morpholine ring opened metabolite formation at 5 uM after 60 mins by UPLC-MS analysis; type: ADME, microsome; conditions: 1 h
[17] = Drug metabolism in rat liver microsomes assessed as cleaved morpholine ring metabolite formation at 5 uM after 60 mins by UPLC-MS analysis; type: ADME, microsome; conditions: 1 h
[18] = Half life in Sprague-Dawley rat at 10 mg/kg, po; type: ADME, organism-based; conditions: in vivo
Cytochrome P450 2C19 = Cytochrome P450 2C19 (Homo sapiens, UniProt P33261); assay: Inhibition of CYP2C19 in human liver microsomes assessed as (S)-mephenytoin 4'-hydroxylation after 4 to 40 mins in presence of NADPH by LCMS analysis; type: ADME
Chain of Cytochrome P450 2C19 (P33261 whole entry): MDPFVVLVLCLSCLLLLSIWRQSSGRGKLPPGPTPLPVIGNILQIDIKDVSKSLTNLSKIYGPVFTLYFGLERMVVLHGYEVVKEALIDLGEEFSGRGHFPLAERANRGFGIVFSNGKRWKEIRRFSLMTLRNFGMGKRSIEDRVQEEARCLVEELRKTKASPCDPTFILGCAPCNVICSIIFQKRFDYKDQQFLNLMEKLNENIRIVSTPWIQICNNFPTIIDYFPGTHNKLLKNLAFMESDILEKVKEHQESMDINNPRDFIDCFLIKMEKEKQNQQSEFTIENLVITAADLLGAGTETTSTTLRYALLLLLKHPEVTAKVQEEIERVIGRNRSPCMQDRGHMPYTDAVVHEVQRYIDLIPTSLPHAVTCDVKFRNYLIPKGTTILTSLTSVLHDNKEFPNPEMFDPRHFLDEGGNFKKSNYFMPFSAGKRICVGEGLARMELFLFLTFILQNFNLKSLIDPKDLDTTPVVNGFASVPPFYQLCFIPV

[19] = Intrinsic clearance in human liver microsomes assessed per mg protein at 1 uM by UPLC-MS analysis; type: ADME, microsome; conditions: read-out: CLH
[20] = Tmax in humanized NOD.Cg-Prkdcscid Il2rgtm1Wjl/SzJ mouse infected with Plasmodium falciparum Pf3D70087/N9 at 30 mg/kg, po administered as single dose by LC-MS/MS analysis; type: ADME, organism-based; conditions: in vivo
[21] = Plasma concentration in Plasmodium berghei infected mouse at 30 mg/kg, po administered as single dose after 24 hrs; type: ADME, organism-based
[22] = Drug metabolism in rat liver microsomes assessed as deaminated morpholine metabolite formation at 5 uM after 60 mins by UPLC-MS analysis; type: ADME, microsome; conditions: 1 h
[23] = Tmax in humanized NOD.Cg-Prkdcscid Il2rgtm1Wjl/SzJ mouse infected with Plasmodium falciparum Pf3D70087/N9 at 100 mg/kg, po administered as single dose by LC-MS/MS analysis; type: ADME, organism-based; conditions: in vivo
[24] = Drug metabolism in rat liver microsomes assessed as metabolite 4-(4-(morpholinomethyl)phenyl)cyclohexanol formation at 5 uM after 60 mins by UPLC-MS analysis; type: ADME, microsome; conditions: 1 h
[25] = Drug metabolism in human liver microsomes assessed as metabolite M+16 (III) formation at 5 uM after 60 mins by UPLC-MS analysis; type: ADME, microsome; conditions: 1 h

c1cc(C2CCC3(CC2)OOC2(OO3)C3CC4CC(C3)CC2C4)ccc1CN1CCOCC1 (stereo unspecified)
AUCt/dose (Mus musculus [1]): 0.0232 µg·h/mL/mg/kg
Drug metabolism [2]: Metabolite_Detected
IC50 (Plasmodium falciparum): 0.0013 µM
Drug metabolism [3]: Metabolite_Notdetected
Drug metabolism [4]: Metabolite_Notdetected
Drug metabolism [5]: Metabolite_Notdetected
IC50 (Cytochrome P450 1A2): > 20 µM
Tmax [6]: 1 h
Drug metabolism [7]: Metabolite_Notdetected
Drug metabolism [8]: Metabolite_Notdetected
Drug metabolism [9]: Metabolite_Notdetected
Cmax [10]: 250 ng/mL
Cmax [11]: 148 ng/mL
IC50 (Cytochrome P450 3A4): > 20 µM
AUCt/dose (Mus musculus [12]): 0.0599 µg·h/mL/mg/kg
IC50 (Cytochrome P450 2D6): > 20 µM
IC50 (Cytochrome P450 2C9): > 20 µM
AUCt/dose (Mus musculus [13]): 0.0313 µg·h/mL/mg/kg
Stability [14]: Stable
half-life at 1 µM [15]: 0.567 h
Drug metabolism [16]: Metabolite_Notdetected
Drug metabolism [17]: Metabolite_Notdetected
half-life [18]: 17 h
IC50 (Cytochrome P450 2C19): > 20 µM
microsomal CLint at 1 µM [19]: 51 µL/min/mg
Tmax [20]: 1 h
concentration at 24 h [21]: > 100 ng/mL
Drug metabolism [22]: Metabolite_Notdetected
Tmax [23]: 0.5 h
Drug metabolism [24]: Metabolite_Detected
Drug metabolism [25]: Metabolite_Notdetected
